{"source": "patent US12226494B2", "about": "“Pharmaceutical compositions comprising Gd-complexes and polyarylene additives” (BRACCO IMAGING S.P.A., priority 2018, dated 2025)", "key": {"[1]": {"experiment": "Proton Relaxation Enhancement (PRE) titration of ProHance with polyarylenes and reference compounds: Ka and Rb", "format": "binding", "conditions": "for Rb/r1p: adduct with ProHance relative to free ProHance; for Ka: interaction with ProHance (1 mM), Hepes/NaCl; for Ka / Rb: T = 25° C., 21.5 MHz, pH = 7.0 ± 0.1; for Rb: relaxivity of the adduct with ProHance at saturation", "description": "(§1) This method consists in measuring the variation in the longitudinal proton Relaxation Rates (R1=1/T1) of the paramagnetic solutions upon increasing the concentration of the interacting substrate. […] To this end, solutions of the Gd-complexes (1 mM) were titrated with the polyarylenes compounds and non-hydrophobic reference compounds (in the concentration range 1-40 mM, leading to the saturation of the contrast agent), at 21.5 MHz and 298 K, in Hepes/NaCl buffer solution ([hepes]=3.8 mM, [NaCl]=150 mM) at pH 7.0-7.2.\n(§2) The reproducibility of the T data was ±0.5%.\nThe least-squares fit of the R1 versus substrate concentration binding isotherms (FIGS. 4 and 5) enabled us to calculate the affinity constants and the relaxivities of the adducts reported in tables 2 and 3 below.\nOther aromatic-containing structures, beside HPTS, were considered for the interaction."}, "[2]": {"experiment": "Proton Relaxation Enhancement (PRE) titration of Gd-complexes (GBCA) with HPTS: binding parameters Ka and Rb", "conditions": "for Ka: interaction of GBCA (1 mM) with HPTS, Hepes/NaCl; for Ka / Rb: T = 25° C., 21.5 MHz, pH = 7.0 ± 0.1; for Rb: relaxivity of the adduct with HPTS at saturation", "method": "The binding parameters Ka and Rb between the investigated Gd-complexes and the polyarylene additives were calculated by using the well-established Proton Relaxation Enhancement (PRE) technique.\nThis method consists in measuring the variation in the longitudinal proton Relaxation Rates (R1=1/T1) of the paramagnetic solutions upon increasing the concentration of the interacting substrate. By this method, the binding parameters Ka (the affinity constant) and Rb (the relaxivity of the resulting adducts at saturation) can be determined. To this end, solutions of the Gd-complexes (1 mM) were titrated with the polyarylenes compounds and non-hydrophobic reference compounds (in the concentration range 1-40 mM, leading to the saturation of the contrast agent), at 21.5 MHz and 298 K, in Hepes/NaCl buffer solution ([hepes]=3.8 mM, [NaCl]=150 mM) at pH 7.0-7.2.\nRelaxation rates were measured on a Stelar SpinMaster Relaxometer (Stelar, Mede, PV, It) operating at 21.5 MHz by means of the inversion recovery method (16 experiments, two scans). The reproducibility of the T data was ±0.5%.\nAnalysis of data was carried out by using origin 9.0 software."}, "[3]": {"experiment": "Longitudinal relaxivity r1p of the free Gd-complex (relaxometry, 21.5 MHz)", "format": "physicochemical", "conditions": "T = 25° C., B0 = 21.5 MHz, pH = 7.0 ± 0.1", "description": "as §1, §2"}, "[4]": {"experiment": "1H NMRD profiles of ProHance free and in the presence of 40 mM HPTS", "format": "physicochemical", "conditions": "1 mM ProHance with 40 mM HPTS vs ProHance as-such; 298 K; 0.01-70 MHz", "description": "In order to investigate if the enhancement of the relaxivity is maintained at different magnetic field strength, the proton 1/T1 NMRD profiles were measured at 298 K on 1 mM ProHance solutions in the absence and in the presence of 40 mM HPTS. Measurements were carried out on a fast field-cycling Stelar relaxometer over a continuum of magnetic field strengths from 0.00024 to 0.47 T (corresponding to 0.01-20 MHz proton Larmor Frequency). The relaxometer operates under computer control with an absolute uncertainty in 1/T1 of ±0.1%. Additional data points in the range 21.5-70 MHz were obtained on the Stelar SpinMaster relaxometer. The concentration of the solutions used for the relaxometric characterization was determined according to a previously reported relaxometric method (Arena, F. et al, Bioconjugate Chem. 2011, 22, 2625-2635).\nThe analysis provides the evolution of the relaxivity of the two species as a function of the magnetic field."}, "[5]": {"test_system": "TS/A breast cancer cells transplanted on Balb/c mice", "conditions": "T1w MRI at 7.1T, injection of 0.15 mmol/Kg ProHance alone or with 0.45 mmol/Kg HPTS", "method": "Mice were injected with 0.15 mmoles/kg of ProHance e 0.45 mmoles/kg of HPTS (corresponding to 150-220 μL for 20-30 g mice).\nIn vivo experiments were carried out on xenograpt murine models of cancer.\nFemale 10-12 weeks Balb/c mice (Charles River Laboratories, Calco, Italy) were inoculated subcutaneously in the flank with 0.1 mL of a suspension containing 5×10^5 TS/A mammary breast cancer cell lines (Nanni P. et al. Clin. Exp. Metastasis 1983, 1, 373-380).\nFor MRI acquisition, mice were anesthetized by intramuscular injection of a mixture of 20 mg/kg tiletamine/zolazepam (Zoletil 100, Virbac, Milan, Italy) 20 mg/kg plus 5 mg/kg xylazine (Rompun; Bayer, Milan, Italy). A permanent vein access was obtained by inserting a PE10 catheter into the tail vein.\nMR images have been acquired, pre and post injection of GBCA, at 7.1T by using Bruker Avance 300 spectrometer equipped with a Micro 2.5 microimaging probe. Mice were injected with 0.15 mmol/Kg of ProHance followed (after 1 h when the wash-out of the GBCA was considered complete) by the injection of a mixture of ProHance and HPTS (0.15 mmol/Kg ProHance and 0.45 mmol/Kg HPTS).\nTumor volume and morphology were determined by multislices anatomical T2w images. A ROI was manually drawn and the slice volume was calculated. […]"}}, "note": "Entries after “also recorded” stand apart in the source; their conditions may differ.", "data": [{"compound": "O=S(=O)(O)c1cc(S(=O)(=O)O)c2ccc3c(S(=O)(=O)O)cc(S(=O)(=O)O)c4ccc1c2c43", "note": "[PTS, 1,3,6,8 Pyrenetetrasulfonic acid]", "values": [{"measurement": "Rb/r1p", "setting": "[1]", "value": 1.6}, {"measurement": "Ka", "setting": "[1]", "value": 177, "unit": "M⁻¹"}, {"measurement": "Rb", "setting": "[1]", "value": 7.3, "unit": "mM⁻¹ s⁻¹"}]}, {"compound": "O=S(=O)(O)c1cc(S(=O)(=O)O)c2ccc3c(O)cc(O)c4ccc1c2c43", "note": "[HPDS, 6,8-Dihydroxypyrene-1,3-disulfonic acid]", "values": [{"measurement": "Rb/r1p", "setting": "[1]", "value": 2.4}, {"measurement": "Ka", "setting": "[1]", "value": 124, "unit": "M⁻¹"}, {"measurement": "Rb", "setting": "[1]", "value": 10.9, "unit": "mM⁻¹ s⁻¹"}]}, {"compound": "CNC[C@H](O)[C@@H](O)[C@H](O)[C@H](O)CO.CNC[C@H](O)[C@@H](O)[C@H](O)[C@H](O)CO.O=C([O-])CN(CCN(CC(=O)[O-])CC(=O)O)CCN(CC(=O)[O-])CC(=O)O.[Gd+3]", "note": "[Magnevist]", "values": [{"measurement": "Ka", "setting": "[2]", "value": "no binding is observed; also recorded: No interaction"}]}, {"compound": "CNC[C@H](O)[C@@H](O)[C@H](O)[C@H](O)CO.CNC[C@H](O)[C@@H](O)[C@H](O)[C@H](O)CO.O=C([O-])CN(CCN(CC(=O)[O-])CC(=O)O)CCN(CC(=O)O)C(COCc1ccccc1)C(=O)[O-].[Gd+3]", "note": "(stereo not shown) [MultiHance, gadobenate dimeglumine]", "values": [{"measurement": "Ka", "setting": "[2]", "value": "no binding is observed; also recorded: No interaction"}]}, {"compound": "CNC(=O)CN(CCN(CCN(CC(=O)[O-])CC(=O)NC)CC(=O)[O-])CC(=O)[O-].[Gd+3]", "note": "[Omniscan]", "values": [{"measurement": "Ka", "setting": "[2]", "value": "no binding is observed; also recorded: No interaction"}]}, {"compound": "COc1cc(S(=O)(=O)O)c2ccc3c(S(=O)(=O)O)cc(S(=O)(=O)O)c4ccc1c2c43", "note": "[MPTS, 8-Methoxy-1,3,6 pyrene trisulfonic acid]", "values": [{"measurement": "Rb/r1p", "setting": "[1]", "value": 1.4}, {"measurement": "Ka", "setting": "[1]", "value": 514, "unit": "M⁻¹"}, {"measurement": "Rb", "setting": "[1]", "value": 6.5, "unit": "mM⁻¹ s⁻¹"}]}, {"compound": "O=C([O-])CN1CCNCCN(CC(=O)[O-])CCN(CC(=O)[O-])CC1.[Gd+3]", "note": "[Gd-DO3A]", "values": [{"measurement": "r1p", "setting": "[3]", "value": 6.2, "unit": "mM⁻¹ s⁻¹"}, {"measurement": "Ka", "setting": "[2]", "value": 246, "unit": "M⁻¹"}, {"measurement": "Rb", "setting": "[2]", "value": 9.5, "unit": "mM⁻¹ s⁻¹"}]}, {"compound": "CC(O)CN1CCN(CC(=O)O)CCN(CC(=O)O)CCN(CC(=O)O)CC1", "note": "(stereo not shown) [ProHance]", "values": [{"measurement": "r1p", "setting": "[3]", "value": 4.6, "unit": "mM⁻¹ s⁻¹"}, {"measurement": "improvement of the relaxivity as a function of the magnetic field (NMRD profile)", "setting": "[4]", "value": "maintained over the whole range of magnetic field"}, {"measurement": "mean signal enhancement, Enh %, in the tumor ROI", "setting": "[5]", "value": 53, "unit": "%"}, {"measurement": "improvement of the relaxivity shown by the free complex", "setting": "[2]; 20% of the complex in the form of a non-covalent adduct with HPTS", "value": "about 10%"}, {"measurement": "improvement of the relaxivity shown by the free complex", "setting": "[2]; 60% of the complex in the form of a non-covalent adduct with HPTS", "value": "~30", "unit": "%"}, {"measurement": "improvement of the relaxivity shown by the free complex", "setting": "[2]; 99% of the complex in the form of a non-covalent adduct with HPTS", "value": "~50", "unit": "%"}, {"measurement": "Ka", "setting": "[2]", "value": 628, "unit": "M⁻¹"}, {"measurement": "improvement of relaxivity in comparison with Prohance as-such", "setting": "[2]; molar ratio 1:3 of Prohance to HTPS", "value": "about 30%"}, {"measurement": "Rb", "setting": "[2]", "value": 6.9, "unit": "mM⁻¹ s⁻¹"}]}, {"compound": "O=C(O)CN1CCN(CC(=O)O)CCN(C(CO)C(O)CO)CCN(CC(=O)O)CC1", "note": "(stereo not shown) [Gadovist, Gadobutrol]", "values": [{"measurement": "r1p", "setting": "[3]", "value": 5.0, "unit": "mM⁻¹ s⁻¹"}, {"measurement": "Ka", "setting": "[2]", "value": 1157, "unit": "M⁻¹"}, {"measurement": "Rb", "setting": "[2]", "value": 7.9, "unit": "mM⁻¹ s⁻¹"}]}, {"compound": "O=C(O)CN1CCN(CC(=O)O)CCN(CC(=O)O)CCN(CC(=O)O)CC1", "note": "[Dotarem]", "values": [{"measurement": "r1p", "setting": "[3]", "value": 4.2, "unit": "mM⁻¹ s⁻¹"}, {"measurement": "Ka", "setting": "[2]", "value": 174, "unit": "M⁻¹"}, {"measurement": "Rb", "setting": "[2]", "value": 7.4, "unit": "mM⁻¹ s⁻¹"}]}, {"compound": "O=S(=O)(O)c1ccc(O)cc1", "note": "[HBSA, 4-Hydroxybenzenesulfonic acid]", "values": [{"measurement": "Ka", "setting": "[1]", "value": "No binding; also recorded: No interaction"}]}, {"compound": "O=S(=O)(O)c1cccc2c(S(=O)(=O)O)cccc12", "note": "[1,5 NDS, 1,5 Naphthalene disulphonic acid]", "values": [{"measurement": "Rb/r1p", "setting": "[1]", "value": 1.4}, {"measurement": "Ka", "setting": "[1]", "value": 45.5, "unit": "M⁻¹"}, {"measurement": "Rb", "setting": "[1]", "value": 6.3, "unit": "mM⁻¹ s⁻¹"}]}, {"compound": "O=S(=O)(O)c1cc(O)c2ccc3c(S(=O)(=O)O)cc(S(=O)(=O)O)c4ccc1c2c34", "note": "[HPTS, 8-Hydroxypyrene-1,3,6-trisulfonic acid]", "values": [{"measurement": "Rb/r1p", "setting": "[1]", "value": 1.5}, {"measurement": "Ka", "setting": "[1]", "value": 628, "unit": "M⁻¹"}, {"measurement": "Rb", "setting": "[1]", "value": 6.9, "unit": "mM⁻¹ s⁻¹"}]}, {"compound": "Nc1cc(S(=O)(=O)O)c2ccc3c(S(=O)(=O)O)cc(S(=O)(=O)O)c4ccc1c2c43", "note": "[APTS, 8-Aminopyrene-1,3,6 trisulfonic acid]", "values": [{"measurement": "Rb/r1p", "setting": "[1]", "value": 1.6}, {"measurement": "Ka", "setting": "[1]", "value": 319, "unit": "M⁻¹"}, {"measurement": "Rb", "setting": "[1]", "value": 7.6, "unit": "mM⁻¹ s⁻¹"}]}, {"compound": "O=S(=O)(O)c1ccc2cc(S(=O)(=O)O)ccc2c1", "note": "[2,6 NDS, 2,6 Naphthalene disulphonic acid]", "values": [{"measurement": "Rb/r1p", "setting": "[1]", "value": 1.2}, {"measurement": "Ka", "setting": "[1]", "value": 94.4, "unit": "M⁻¹"}, {"measurement": "Rb", "setting": "[1]", "value": 5.4, "unit": "mM⁻¹ s⁻¹"}]}, {"compound": "O=C(O)COc1cc(S(=O)(=O)O)c2ccc3c(S(=O)(=O)O)cc(S(=O)(=O)O)c4ccc1c2c43", "note": "[CMPTS, 8-Carboxymethoxypyrene-1,3,6-trisulfonic acid]", "values": [{"measurement": "Rb/r1p", "setting": "[1]", "value": 1.8}, {"measurement": "Ka", "setting": "[1]", "value": 94.2, "unit": "M⁻¹"}, {"measurement": "Rb", "setting": "[1]", "value": 8.5, "unit": "mM⁻¹ s⁻¹"}]}]}
